Assay results reported in patent US20260325540A1 (priority 2023, published 2026).

What follows are compounds tested against HCoV-229E 3CL protease (Human coronavirus 229E, UniProt P0C6U2) (assay: FRET based protease assay, HCoV-229E 3CL). Settings: 229E IC50, 6 nM H229E-CoV Chis-3CLpro, 6 μM peptide 1 substrate, 25° C., 1.5 hrs, pH 7.5.
Format: biochemical

Sequence of HCoV-229E 3CL protease (P0C6U2 2966-3267): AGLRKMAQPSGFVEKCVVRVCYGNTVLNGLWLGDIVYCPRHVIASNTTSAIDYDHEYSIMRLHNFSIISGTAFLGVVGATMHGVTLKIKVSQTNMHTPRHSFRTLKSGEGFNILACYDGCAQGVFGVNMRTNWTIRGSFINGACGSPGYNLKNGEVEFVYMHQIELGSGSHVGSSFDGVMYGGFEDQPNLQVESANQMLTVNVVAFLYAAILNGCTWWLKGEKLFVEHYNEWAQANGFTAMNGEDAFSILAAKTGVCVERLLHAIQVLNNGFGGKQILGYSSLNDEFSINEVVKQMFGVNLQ

Q: Which IC50 does the source give for `CC1(C)[C@@H]2[C@H]3C(=O)N[C@H](C#N)C[C@@H]4C(=O)NC[C@@H]4CCCC[C@H](NC(=O)c4ccc(F)c(C(F)(F)F)c4)C(=O)N3C[C@@H]21` [Example 116] here?
A: Its IC50 is < 100 nM.

Q: `CC1(C)[C@@H]2[C@H]3C(=O)N[C@H](C#N)C[C@@H]4C(=O)NC[C@@H]4/C=C/CC[C@H](NC(=O)C4CC(F)(F)C4)C(=O)N3C[C@@H]21` [Example 83] was tested. Which IC50 did it give?
A: Its IC50 is < 100 nM.

Q: Which IC50 does the source give for `CC(C)C[C@@H]1NC(=O)[C@@H](N(C)C(=O)OC(C)(C)C)CCC[C@H]2CNC(=O)[C@@H]2C[C@@H](C#N)NC1=O` [Example 22] here?
A: Its IC50 is 1000 to 20000 nM.

Q: How did the IC50 turn out when `CC(C)(C)OC(=O)N[C@H]1CCC[C@H]2CCNC(=O)[C@H]2C[C@@H](C#N)NC(=O)[C@@H]2[C@H]3CCC[C@H]3CN2C1=O` [Example 100] was run?
A: Its IC50 is 100 to 1000 nM.

Q: For `CC(C)C[C@@H]1NC(=O)[C@@H](Cc2ccccc2)CCCC[C@H]2CNC(=O)[C@@H]2C[C@@H](C=O)NC1=O` [Example 37], which IC50 is on record?
A: Its IC50 is < 100 nM.

Q: With `CC(C)(C)NC(=O)[C@@H]1CCCC[C@H]2CNC(=O)[C@H]2C[C@@H](C#N)NC(=O)[C@@H]2[C@@H]3[C@H](CN2C1=O)C3(C)C` [Example 166] as the compound, how does the IC50 read?
A: The IC50 was 1000 to 20000 nM.

Q: For `CC(C)C[C@@H]1NC(=O)[C@@H](CC2CCCC2)CCC[C@H]2CNC(=O)[C@@H]2C[C@@H](C=O)NC1=O` [Example 18], which IC50 is on record?
A: The IC50 was 100 to 1000 nM.

Q: For `CC(C)(C)OC(=O)N[C@H]1CCCC[C@H]2CNC(=O)[C@H]2C[C@@H](C#N)NC(=O)[C@@H]2CC3(CC3)CN2C1=O` [Example 105], which IC50 is on record?
A: The IC50 was < 100 nM.

Q: For `CC1(C)[C@@H]2[C@H]3C(=O)N[C@H](C#N)C[C@@H]4C(=O)NC[C@@H]4CCCC[C@H](NC(=O)c4cc(C(F)(F)F)on4)C(=O)N3C[C@@H]21` [Example 153], which IC50 is on record?
A: Its IC50 is < 100 nM.

Q: How did the IC50 turn out when `CC(C)C[C@@H]1NC(=O)[C@@H](Cc2ccccc2)CCC[C@H]2CNC(=O)[C@@H]2C[C@@H](C=O)NC1=O` [Example 17] was run?
A: The IC50 was 100 to 1000 nM.

Q: With `CC(C)(C)C(=O)N[C@H]1CCCC[C@H]2CCNC(=O)[C@H]2C[C@@H](C#N)NC(=O)[C@@H]2[C@@H]3[C@H](CN2C1=O)C3(C)C` [Example 69] as the compound, how does the IC50 read?
A: The IC50 was < 100 nM.

Q: How did the IC50 turn out when `CC1(C)[C@@H]2[C@H]3C(=O)N[C@H](C#N)C[C@@H]4C(=O)NC[C@@H]4CCCC[C@H](NC(=O)C4CCC(F)(F)CC4)C(=O)N3C[C@@H]21` [Example 68] was run?
A: Its IC50 is < 100 nM.

Q: `CC(C)(C)OC(=O)N[C@H]1CCC[C@H]2CNC(=O)[C@H]2C[C@@H](C#N)NC(=O)[C@@H]2[C@@H]3[C@H](CN2C(=O)C1)C3(C)C` [Example 125] was tested. Which IC50 did it give?
A: The IC50 was 100 to 1000 nM.

Q: How did the IC50 turn out when `CC1(C)[C@@H]2[C@H]3C(=O)N[C@H](C#N)C[C@@H]4C(=O)NC[C@@H]4CCCC[C@H](NC(=O)c4cncnc4)C(=O)N3C[C@@H]21` [Example 107] was run?
A: Its IC50 is < 100 nM.

Q: `CC(C)(C)C(=O)N[C@H]1CCCC[C@H]2CCNC(=O)[C@@H]2C[C@@H](C#N)NC(=O)[C@@H]2[C@@H]3[C@H](CN2C1=O)C3(C)C` [Example 65] was tested. Which IC50 did it give?
A: Its IC50 is 1000 to 20000 nM.

Q: How did the IC50 turn out when `CC(C)C[C@@H]1NC(=O)[C@@H](Cc2ccc(F)cc2)CCCC[C@H]2CNC(=O)[C@H]2C[C@@H](C#N)NC1=O` [Example 43] was run?
A: Its IC50 is 100 to 1000 nM.

Q: For `CC1(C(=O)N[C@H]2CCCC[C@H]3CNC(=O)[C@H]3C[C@@H](C#N)NC(=O)[C@@H]3[C@@H]4[C@H](CN3C2=O)C4(C)C)CCC1` [Example 118], which IC50 is on record?
A: Its IC50 is < 100 nM.

Q: For `CC(C)(C)C[C@@H]1NC(=O)[C@@H](NC(=O)OC(C)(C)C)CCCC[C@H]2CNC(=O)[C@H]2C[C@@H](C#N)NC1=O` [Example 60], which IC50 is on record?
A: The IC50 was < 100 nM.

Q: Which IC50 does the source give for `CO[C@@H]1C[C@H]2C(=O)N[C@H](C#N)C[C@@H]3C(=O)NC[C@@H]3CCCC[C@H](NC(=O)OC(C)(C)C)C(=O)N2C1` [Example 147] here?
A: Its IC50 is 100 to 1000 nM.

Q: How did the IC50 turn out when `CC(C)C[C@@H]1NC(=O)[C@@H](NC(=O)OC(C)(C)C)CCC[C@@H]2CNC(=O)[C@@H]2C[C@@H](C=O)NC1=O` [Example 16] was run?
A: The IC50 was 1000 to 20000 nM.

Q: With `CC1(C)[C@@H]2[C@H]3C(=O)N[C@H](C#N)C[C@@H]4C(=O)NC[C@@H]4CCCC[C@H](NC(=O)c4cc(Cl)ccc4Cl)C(=O)N3C[C@@H]21` [Example 133] as the compound, how does the IC50 read?
A: Its IC50 is < 100 nM.

Q: `CC(C)(C)C[C@@H]1NC(=O)[C@@H](NC(=O)C2(C(F)(F)F)CC2)CCCC[C@H]2CNC(=O)[C@H]2C[C@@H](C#N)NC1=O` [Example 149] was tested. Which IC50 did it give?
A: The IC50 was < 100 nM.

Q: With `CN1C(=O)[C@@H](NC(=O)C(C)(C)C)CCCC[C@H]2CNC(=O)[C@H]2C[C@@H](C#N)NC(=O)[C@@H]1CC(C)(C)C` [Example 78] as the compound, how does the IC50 read?
A: Its IC50 is 100 to 1000 nM.

Q: With `CC(C)(C)COC(=O)N[C@H]1CCCC[C@H]2CNC(=O)[C@H]2C[C@@H](C#N)NC(=O)[C@@H]2[C@@H]3[C@H](CN2C1=O)C3(C)C` [Example 106] as the compound, how does the IC50 read?
A: The IC50 was < 100 nM.

Q: With `CC(C)C[C@@H]1NC(=O)[C@@H](Cc2ccccc2)CCCC[C@H]2CNC(=O)[C@H]2C[C@@H](C=O)NC1=O` [Example 36] as the compound, how does the IC50 read?
A: The IC50 was < 100 nM.

Q: With `CC(C)C[C@@H]1NC(=O)CCCCC[C@H]2CNC(=O)[C@@H]2C[C@@H](C=O)NC1=O` [Example 32] as the compound, how does the IC50 read?
A: The IC50 was < 100 nM.
